What all share (type): in vivo, human
One assay concerns Tasters. Put plainly: Sensory evaluation of test material as a sweetener (taster panel, scale of 1 to 10). Set-up: key: not observed or only minimally observed (−); highly observed (+++). The source says: Sample preparation protocol for testing material as a sweetener: Tasters wore noseclips and were blinded to the identity of the test material. Tasters sampled 400 ppm Rebaudioside A and 6.5 Brix sucrose prior to the test material. Reb A 400 ppm was assigned a 5 on the scale of 1 to 10 as shown in FIG. 8 and sucrose (6.5%) was assigned a 10 on the same scale. Tasters were asked to rinse their mouths 5 times with water between tasting each sample. Tasters were then given the test article and asked to rank the test article for sweetness on the noted scale. Tasters were also asked to provide comments about bitterness, linger, flavors, and any other perceptions.
Numerical scores from all tasters were averaged and, taken together with comments regarding sweet quality, bitterness and off-tastes, converted into the symbols “−,” “+,” “++,” and “+++” to indicate whether a given characteristic was not observed or only minimally observed (−) or highly observed (+++). For example, a sample having a “−” in both sweet intensity and bitterness should be understood as a sample having minimal or no sweetness and minimal or no bitter flavor. By contrast, a sample having a “+++” in both sweet intensity and bitterness should be understood as a sample having highly observed sweet intensity and bitterness.
Preparation of Reb A in this experiment: Prepare 400 ppm Reb A in water (pH=7): 40 mg of Rebaudioside A was dissolved with stirring in 100 ml of water at room temperature.
Preparation of Sucrose in this experiment: Prepare 6.5% Sucrose in water (pH=7): weight 6.5 gr of Sucrose and dissolve it in 93.5 gr water (total 100 gr)
• Sweet quality was based upon a temporal profile (sweet onset, linger) and attributes such as syrupy, round, clean.

Assay [1] deals with Trained Sensory panelists. Put plainly: Sucrose Equivalence Value, paired comparison with 1.5% sucrose. Particulars: 25 ppm in aqueous phosphoric acid (pH 3.1), room temperature; p<0.0001. The source says:
(§1) Trained Sensory panelists (n=25, 3 evaluations each) evaluated Reb B Galactoside in aqueous phosphoric acid (pH 3.1) at room temperature. Rebaudioside B galactoside is not currently approved for use in food or beverages in the United States. Therefore, every person who tasted the samples signed an informed consent form provided by PepsiCo Scientific Affairs before tasting samples. Participation in the tests was completely voluntary. Panelists who chose to participate could choose to stop participation at any time. In order for a test ingredient to be considered an enhancer, it must not be considered a sweetener.

The test system of assay [2] is Trained Sensory panelists. Put plainly: Sweet enhancement ranking test (4 samples ranked from least sweet to most sweet).
From the text: as §1, with “Panelists were asked” for “In order for a test ingredient”, “rank 4 samples from least sweet to most sweet, with 1=least sweet and 4=most sweet As shown in FIGS. 1-3, Enhancement of Reb A, high-fructose corn syrup and sucrose were observed.” for “be considered an enhancer, it must not be considered a sweetener.”

Turning to `C=C1C[C@@]23CC[C@H]4[C@@](C)(CCC[C@@]4(C)C(=O)O[C@@H]4O[C@H](CO)[C@H](O)[C@H](O)[C@H]4O)[C@@H]2CC[C@]1(O[C@@H]1O[C@H](CO)[C@@H](O)[C@H](O[C@@H]2O[C@H](CO)[C@@H](O)[C@H](O)[C@H]2O)[C@H]1O[C@@H]1O[C@H](CO)[C@@H](O)[C@H](O)[C@H]1O)C3` [Compound 7D, Rebaudioside B Galactoside], the “Sweet Intensity” value in the assay with Tasters (averaged taster scores, scale 1 to 10 with Reb A 400 ppm = 5 and sucrose 6.5% = 10, noseclips, blinded) is recorded as “+++”. The Bitterness result in the assay with Tasters (taster comments and scores converted into symbols) is recorded as “−”. Besides, in assay [1], the “Sucrose Equivalence Value (sweetness compared with 1.5% sucrose)” value is below 1.5 % sucrose. In addition, in assay [2] (25 ppm added to HFCS, FIG. 2), the “Enhancement of sweetness of High-Fructose Corn Syrup (HFCS)” value is listed as “enhances the sweetness”. For the same molecule, the “Enhancement of sweetness of Rebaudioside A” value in assay [2] (25 ppm added to Rebaudioside A, FIG. 1) was “enhances the sweetness”. Also, the “Enhancement of sweetness of sucrose” value in assay [2] (25 ppm added to sucrose, FIG. 3) is reported as “enhances the sweetness”.
